Tests used:
Rattus norvegicus [1] = assay: Suppression of conditioned avoidance behavior in rats when administered perorally 60 min before measurement; assay type: functional; conditions: po
Mus musculus [2] = assay: Antagonism of apomorphine-induced climbing in mice when administered perorally 60 min prior to apomorphine (1 mg/kg); assay type: functional; conditions: po
Mus musculus [3] = assay: Antagonism of apomorphine-induced climbing in mice when administered intraperitoneally 30 min prior to apomorphine (1 mg/kg); conditions: ip
D(2) dopamine receptor = D(2) dopamine receptor (Rattus norvegicus, UniProt P61169); assay: Ability to inhibit the [3H]spiperone binding to striatum Dopamine receptor D2 was determined in rat; assay type: tissue-based
Sequence of D(2) dopamine receptor (P61169 whole entry): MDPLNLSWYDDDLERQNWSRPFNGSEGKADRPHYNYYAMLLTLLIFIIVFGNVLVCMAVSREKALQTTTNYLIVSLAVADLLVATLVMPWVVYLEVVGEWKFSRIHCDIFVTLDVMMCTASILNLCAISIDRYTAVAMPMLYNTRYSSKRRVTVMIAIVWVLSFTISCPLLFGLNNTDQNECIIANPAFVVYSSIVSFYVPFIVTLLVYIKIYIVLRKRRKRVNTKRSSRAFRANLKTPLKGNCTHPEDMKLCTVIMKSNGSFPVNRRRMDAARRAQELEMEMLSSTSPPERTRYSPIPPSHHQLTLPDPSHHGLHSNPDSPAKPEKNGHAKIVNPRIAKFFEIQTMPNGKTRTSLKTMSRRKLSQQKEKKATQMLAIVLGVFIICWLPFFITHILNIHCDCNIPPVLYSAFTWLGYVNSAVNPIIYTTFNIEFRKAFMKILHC

[4] = target: T1, Adrenergic receptor alpha-1 (Rattus norvegicus, UniProt P15823+P23944+P43140); assay: Ability to inhibit [3H]WB-4101 binding to alpha-1 adrenergic receptor was determined in rat
T1 sequence (P15823 whole entry): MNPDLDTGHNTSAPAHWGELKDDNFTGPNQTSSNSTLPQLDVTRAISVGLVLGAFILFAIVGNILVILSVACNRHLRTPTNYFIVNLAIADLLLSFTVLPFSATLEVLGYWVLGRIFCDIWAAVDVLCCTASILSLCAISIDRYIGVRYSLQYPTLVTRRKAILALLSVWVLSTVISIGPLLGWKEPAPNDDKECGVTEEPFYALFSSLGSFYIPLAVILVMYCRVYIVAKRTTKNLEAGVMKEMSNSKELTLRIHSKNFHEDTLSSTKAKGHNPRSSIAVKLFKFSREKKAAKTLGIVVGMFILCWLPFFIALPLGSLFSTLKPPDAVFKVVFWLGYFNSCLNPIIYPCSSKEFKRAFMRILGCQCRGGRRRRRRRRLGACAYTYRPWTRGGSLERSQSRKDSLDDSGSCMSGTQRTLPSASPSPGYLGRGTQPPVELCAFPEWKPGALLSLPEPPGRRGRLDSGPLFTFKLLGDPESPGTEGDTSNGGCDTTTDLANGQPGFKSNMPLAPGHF
T1 sequence (P23944 whole entry): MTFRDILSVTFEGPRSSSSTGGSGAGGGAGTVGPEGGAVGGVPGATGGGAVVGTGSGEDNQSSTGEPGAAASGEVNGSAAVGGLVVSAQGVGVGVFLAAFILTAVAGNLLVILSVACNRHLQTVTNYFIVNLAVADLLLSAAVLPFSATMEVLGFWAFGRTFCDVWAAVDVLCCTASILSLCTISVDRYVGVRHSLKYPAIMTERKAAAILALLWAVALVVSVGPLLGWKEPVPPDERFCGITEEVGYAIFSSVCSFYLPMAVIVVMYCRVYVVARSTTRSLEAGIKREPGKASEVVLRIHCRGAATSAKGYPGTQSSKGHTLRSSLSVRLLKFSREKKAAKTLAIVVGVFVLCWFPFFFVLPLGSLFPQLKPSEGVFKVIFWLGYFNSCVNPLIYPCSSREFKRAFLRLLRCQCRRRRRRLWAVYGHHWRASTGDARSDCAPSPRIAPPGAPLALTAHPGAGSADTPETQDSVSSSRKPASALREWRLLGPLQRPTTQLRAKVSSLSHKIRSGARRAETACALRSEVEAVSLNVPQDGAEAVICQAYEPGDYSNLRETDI
T1 sequence (P43140 whole entry): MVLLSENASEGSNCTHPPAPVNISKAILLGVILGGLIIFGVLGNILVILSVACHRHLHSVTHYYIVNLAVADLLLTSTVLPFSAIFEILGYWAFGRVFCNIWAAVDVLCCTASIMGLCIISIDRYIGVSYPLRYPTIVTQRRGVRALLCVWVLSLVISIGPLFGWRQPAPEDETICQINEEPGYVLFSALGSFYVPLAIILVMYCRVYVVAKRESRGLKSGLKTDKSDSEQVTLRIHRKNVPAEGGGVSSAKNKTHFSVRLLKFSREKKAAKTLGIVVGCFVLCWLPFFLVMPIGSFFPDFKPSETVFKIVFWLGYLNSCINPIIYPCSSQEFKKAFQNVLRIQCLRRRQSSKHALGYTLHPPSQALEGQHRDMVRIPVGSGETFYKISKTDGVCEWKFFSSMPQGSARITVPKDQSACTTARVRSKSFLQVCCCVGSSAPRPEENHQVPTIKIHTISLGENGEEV

[5] = target: Serotonin 2 (5-HT2) receptor (Rattus norvegicus, UniProt P30994+P08909+P14842); assay: Ability to inhibit [3H]spiperone binding to 5-hydroxytryptamine 2 receptor determined in rat
Rattus norvegicus [6] = assay: Suppression of conditioned avoidance behavior in rats when administered intraperitoneally 30 min before measurement; conditions: ip
Rattus norvegicus [7] = assay: Induction of catalepsy in rats when administered intraperitoneally 4 hr prior to measurement to groups of 9 animals. value is based on at least three dose levels(40% of animals showed catalepsy); assay type: functional; conditions: ip

Structure (SMILES)	Ki (D(2) dopamine receptor) [nM]	Ki [4] [nM]	Ki [5] [nM]	ED50 (Rattus norvegicus [1]) [mg/kg]	ED50 (Mus musculus [2]) [mg/kg]	ED50 (Mus musculus [3]) [mg/kg]	ED50 (Rattus norvegicus [6]) [mg/kg]	ED50 (Rattus norvegicus [7]) [mg/kg]
CCN1CCCC1c1ccc(-c2cc(S(=O)(=O)CC)ccc2OC)[nH]1 (configuration not stated)	29			35	11.4	4.7		
CCN1CCC[C@H]1CNC(=O)c1cc(S(=O)(=O)CC)ccc1OC	9.3	1100	54000	70	36	> 10		
OC1(c2ccc(Cl)cc2)CCN(Cc2ccc(-c3ccc(F)cc3)[nH]2)CC1	1100	1600	9300	> 50	51	25	> 20	
CCS(=O)(=O)c1ccc(OC)c(-c2ccc(CN3CCC(O)(c4ccc(Cl)cc4)CC3)[nH]2)c1	150				> 100	> 20		
O=C(CCCN1CCC(O)(c2ccc(Cl)cc2)CC1)c1ccc(F)cc1 [HALOPERIDOL]				0.8		0.08	0.45	2
CCN1CCC[C@H]1CNC(=O)c1cc(S(N)(=O)=O)ccc1OC [LEVOSULPIRIDE]		15000		> 220	195	> 21	> 100	

Further lines, with some results ahead:

Ki (D(2) dopamine receptor) [nM]	Ki [4] [nM]	Ki [5] [nM]	Structure (SMILES)	ED50 (Rattus norvegicus [1]) [mg/kg]	ED50 (Mus musculus [2]) [mg/kg]	ED50 (Mus musculus [3]) [mg/kg]	ED50 (Rattus norvegicus [6]) [mg/kg]	ED50 (Rattus norvegicus [7]) [mg/kg]
0.91	57	310	COc1ccccc1N1CCN(Cc2ccc(-c3ccc(F)cc3)[nH]2)CC1	8.5	0.9	0.2	2.3	> 24
	9	700	COc1ccccc1N1CCN(CCNC(=O)c2ccc(F)cc2)CC1	30	15	0.4	0.74	> 7.4
7.3			CCS(=O)(=O)c1ccc(OC)c(-c2ccc(CN3CCN(c4ccccc4OC)CC3)[nH]2)c1	> 50	35	> 20	> 20	
480	250		O=C(NCCN1CCC(O)(c2ccc(Cl)cc2)CC1)c1ccc(F)cc1	> 50	20	9		
2.9	0.87	52	COc1ccccc1N1CCN(CCCC(=O)c2ccc(F)cc2)CC1 [FLUANISONE]	> 50	25	0.4	2.2	≥ 22

Source: ChEMBL document CHEMBL1123646, “2-Phenylpyrroles as conformationally restricted benzamide analogues. A new class of potential antipsychotics. 1” (J Med Chem, 1987)
